{
  "source": "paper PMC9709777",
  "about": "“Enzyme-instructed morphology transformation of mitochondria-targeting peptide for the selective eradication of osteosarcoma” (RSC Chemical Biology, 2022)",
  "key": {"HeLa cells": {"system": "HeLa cells", "experiment": "Cell viability, MTT assay", "format": "cell-based", "settings": "48 h incubation, read-out: Concentration at which 50% viability was observed", "experimental": "(§1) To confirm that the cytotoxicity of L-Mito-FFYp stems from its selectivity toward ALP and the consequent morphology transformation, the cytotoxicity was evaluated toward Saos-2, HeLa, SK-BR-3, and NIH-3T3 cell lines. SK-BR-3 and NIH-3T3 cell lines are known to express fewer ALP enzymes. […] And the cytotoxicity of L-Mito-FFYp in the Saos-2 cell line was analyzed in the presence and absence of endocytosis inhibitors such as chlorpromazine (clathrin), sucrose (macropinocytosis), and M-β-cyclodextrin (caveolin). […] To further verify the important role of the phosphate moiety, we synthesized L-Mito-FFY compound (Fig. S2, ESI ^†). […] After phosphoric acid was cleaved by the ALP enzyme overexpressed in the Saos-2 cell membrane, Mito-FFY was accumulated in the mitochondria. As a result, apoptosis occurred due to mitochondrial membrane disruption induced by self-assembled fibers inside the mitochondria.\n(§2) Fig. 3 (A) Cell viability analysis of L-Mito-FFYp in Saos-2, HeLa, SK-BR-3 and NIH 3T3 cell lines for an incubation time of 48 h. (B) Cell viability analysis of L-Mito-FFYp in the presence of different endocytosis inhibitos. […] (E) Western blotting analysis showing the release of cytochrome C after treatment with L-Mito-FFYp. […]"}, "NIH-3T3 cell line": {"system": "NIH-3T3 cell line", "experiment": "Cell viability, MTT assay", "format": "cell-based", "settings": "NIH 3T3, 10 μM, 48 h incubation", "experimental": "as §1, §2"}, "Saos-2 cell line [1]": {"system": "Saos-2 cell line", "format": "cell-based", "experimental": "as §1\n(§3) Fig. 3 (A) Cell viability analysis of L-Mito-FFYp in Saos-2, HeLa, SK-BR-3 and NIH 3T3 cell lines for an incubation time of 48 h. (B) Cell viability analysis of L-Mito-FFYp in the presence of different endocytosis inhibitos. […] (E) Western blotting analysis showing the release of cytochrome C after treatment with L-Mito-FFYp. TEXT PRINTED IN THE PICTURE: (D) Mito-FFYp: Q1 0.91; Q2 26.4; Q3 8.97; Q4 63.7 DOUBTS OF THE COPYIST ABOUT THIS PICTURE: Mito-FFYp, panel D, Q1: very small blurred print, 0.91 uncertain (could be 0.51 or 0.61) / Mito-FFYp, panel D, Q2: very small blurred print, 26.4 uncertain (6 could be 5 or 8) / Mito-FFYp, panel D, Q3: very small blurred print, 8.97 uncertain (could be 6.97 or 8.57) / Mito-FFYp, panel D, Q4: very small blurred print, 63.7 uncertain (could be 65.7 or 83.7) / Panel D, Control plot also prints quadrant numbers (about Q1 0.090, Q2 0.24, Q3 0.078, Q4 99.6). […]\n(§4) M. T. Jeena,‡a Seongeon Jin,‡ a Batakrishna Jana,a and Ja-Hyoung Ryu,*a Materials. All peptides were synthesized manually on a […] scale. The products were purified by high-performance liquid chromatography (HPLC, Agilent Technologies, USA) with a C-18 reverse column in ACN/water mixture. […]"}, "SK-BR-3 cell line": {"system": "SK-BR-3 cell line", "format": "cell-based", "settings": "48 h, 10 μM", "experimental": "as §1, §3, §4"}, "[2]": {"experiment": "Cell viability in the presence of ALP inhibitor NBT-BCIP", "format": "cell-based", "settings": "co-treatment with NBT-BCIP solution", "experimental": "as §1\nFigure S14. Cell viability analysis of Mito-FFYp in the presence of ALP inhibitor, NBT-BCIP.\n(1 picture or pasted object on this page, not shown here)"}, "[3]": {"experiment": "TEM analysis of self-assembled morphology, with and without ALP enzyme", "format": "physicochemical", "settings": "15 μM, before ALP treatment", "experimental": "L-Mito-FFYp consists of a tripeptide backbone Phe–Phe–Tyrp (Tyrp stands for tyrosine phosphate) in which pyrene butyric acid is capped on the N-terminus to promote the self-assembly and TPP is conjugated to the amine group of the lysine side chain for targeting the mitochondria (Fig. S1, ESI ^†). The CAC of L-Mito-FFYp was determined to be 12 μM via pyrene excitation method (Fig. 1A). […] The EIMT of L-Mito-FFYp was investigated by treating it with ALP enzyme. After 24 h incubation (37 °C), fibers having a diameter of ca. 10 nm were observed via transmission electron microscopy (TEM) analysis (Fig. 1D). Specifically, micelles with a diameter of 53 nm were converted into fibers with a diameter of 12.9 nm, most likely by the action of the ALP enzyme. To confirm that the fiber structure corresponded to L-Mito-FFY, L-Mito-FFY was separately synthesized and purified (Fig. S2A and B, ESI ^†). It was supposed after the phosphate group cleaved from the ALP enzyme. The L-tyrosine phosphate was replaced with L-tyrosine. Its self-assembled morphology was analyzed via TEM. […]\n(§5) Imaging of apoptosis/necrosis-dependent cell death. […] The cells were then washed gently, the medium was replaced with DMEM medium, and the cells were analyzed using an LSM780 laser confocal scanning microscope. […]"}, "[4]": {"experiment": "CAC determination by pyrene excitation method", "format": "physicochemical", "experimental": "L-Mito-FFYp consists of a tripeptide backbone Phe–Phe–Tyrp (Tyrp stands for tyrosine phosphate) in which pyrene butyric acid is capped on the N-terminus to promote the self-assembly and TPP is conjugated to the amine group of the lysine side chain for targeting the mitochondria (Fig. S1, ESI ^†). The CAC of L-Mito-FFYp was determined to be 12 μM via pyrene excitation method (Fig. 1A). […] The EIMT of L-Mito-FFYp was investigated by treating it with ALP enzyme. After 24 h incubation (37 °C), fibers having a diameter of ca. 10 nm were observed via transmission electron microscopy (TEM) analysis (Fig. 1D). Specifically, micelles with a diameter of 53 nm were converted into fibers with a diameter of 12.9 nm, most likely by the action of the ALP enzyme. To confirm that the fiber structure corresponded to L-Mito-FFY, L-Mito-FFY was separately synthesized and purified (Fig. S2A and B, ESI ^†). It was supposed after the phosphate group cleaved from the ALP enzyme. The L-tyrosine phosphate was replaced with L-tyrosine. Its self-assembled morphology was analyzed via TEM. Similar fibers with a diameter of 10 nm were observed (Fig. S3, ESI ^†), confirming that ALP transforms the L-Mito-FFYp micelles into L-Mito-FFY fibers.\nFig. 1 (A) CAC determination of L-Mito-FFYp using pyrene excitation method. […]"}, "[5]": {"experiment": "Surface charge (zeta potential) analysis", "format": "physicochemical", "settings": "15 μM solution (over the CAC value)"}, "Saos-2 cell line [6]": {"system": "Saos-2 cell line", "experiment": "Cellular ROS by dihydroethidium (DHE) staining, confocal microscopy and flow cytometry", "format": "cell-based", "settings": "Saos-2, DHE staining, 20 μM"}, "Saos-2 cells": {"system": "Saos-2 cells", "experiment": "FITC-annexin V/PI assay (confocal imaging and FACS) for mechanism of cell death", "format": "cell-based", "settings": "FITC-annexin V/PI staining", "experimental": "as §1\nFig. 3 (A) Cell viability analysis of L-Mito-FFYp in Saos-2, HeLa, SK-BR-3 and NIH 3T3 cell lines for an incubation time of 48 h. […] They are left out because Control is not a substance, and the digits are not readable with certainty […]\nas §5"}, "cytochrome C": {"system": "cytochrome C", "experiment": "Western blotting of cytochrome C release", "format": "cell-based", "settings": "western blotting after treatment", "experimental": "as §1\nFig. 3 (A) Cell viability analysis of L-Mito-FFYp in Saos-2, HeLa, SK-BR-3 and NIH 3T3 cell lines for an incubation time of 48 h. (B) Cell viability analysis of L-Mito-FFYp in the presence of different endocytosis inhibitos. […] (E) Western blotting analysis showing the release of cytochrome C after treatment with L-Mito-FFYp. […] They are left out because Control is not a substance, and the digits are not readable with certainty"}},
  "note": "Where two headings read alike, the source gives them in different places.",
  "data": [
    {"smiles": "NC(=O)[C@H](CCCCNCCCCCC[P+](c1ccccc1)(c1ccccc1)c1ccccc1)NC(=O)[C@H](Cc1ccc(OP(=O)(O)O)cc1)NC(=O)[C@H](Cc1ccccc1)NC(=O)[C@H](Cc1ccccc1)NC(=O)CCCc1ccc2ccc3cccc4ccc1c2c34", "note": "[L-Mito-FFYp]", "values": [
      {"measurement": "IC50", "setting": "HeLa cells", "result": "~5", "unit": "µM"},
      {"measurement": "Cell viability", "setting": "NIH-3T3 cell line", "result": "~90", "unit": "%"},
      {"measurement": "IC50", "setting": "Saos-2 cell line [1]; Saos-2, 48 h incubation, MTT, read-out: Concentration at which 50% viability was observed", "result": "~5", "unit": "µM"},
      {"measurement": "IC50", "setting": "Saos-2 cell line [1]; human", "result": "~10", "unit": "µM"},
      {"measurement": "Cell viability", "setting": "SK-BR-3 cell line", "result": "~90", "unit": "%"},
      {"measurement": "Toxicity in the presence of ALP inhibitor", "setting": "[2]", "result": "remarkably reduced"},
      {"measurement": "Micelle diameter", "setting": "[3]", "result": 53, "unit": "nm"},
      {"measurement": "Critical Aggregation Concentration (CAC)", "setting": "[4]", "result": 12, "unit": "µM"},
      {"measurement": "Surface charge (zeta potential)", "setting": "[5]", "result": "−25.6 ± 0.32", "unit": "mV"},
      {"measurement": "Cellular ROS", "setting": "Saos-2 cell line [6]", "result": "overproduction of ROS"},
      {"measurement": "Mechanism of cell death", "setting": "Saos-2 cells", "result": "late apoptosis"},
      {"measurement": "Cytochrome C release from the mitochondria", "setting": "cytochrome C", "result": "released"}
    ]}
  ]
}
